Legend:
[1] = system: human hippocampal neurosphere stem cells; experiment: Cell viability assay (ATP) of neurosphere stem cells (Example 6); assay type: cell-based; details: series concentrations, 4 days; maximum increase versus DMSO control
Procedure: 1) On a superclean bench and under sterile conditions, human embryo hippocampus was taken out;
2) After envelope and blood vessels were removed under a dissecting microscope, tissue obtained was rinsed with pre-cooled PBS at 4° C. 3-5 times, leaving a very small amount of PBS;
3) The tissue was cut into pieces using ophthalmic scissors, and about 5 ml of culture medium was added to suspend the tissue pieces, and then the obtained cell suspension was gently pipetted to achieve single cell state with a pipette tip;
4) The cell suspension was filtered through a 40 μm pore size cell sieve;
5) Cell density was regulated to 1×10^6/ml, and then the cells were inoculated into a […] glass culture flask;
6) The cells in the flask were cultured in a 37° C., 5% CO2 cell culture incubator.
The human hippocampal neurosphere stem cells were mechanically pipetted into small clones, regulated into a suitable density, and inoculated into a 96-well, black-wall plate at about 50 neurospheres/110 μL cell suspension/well. […] Without changing the medium, ATP was added at 20 μL/well after the compound acted for 4 days or other time, and the viability of cells was detected.

[2] = system: H9 cells; experiment: Ki67 proliferation marker immunofluorescence after total nutrient removal culture (Example 5 II); assay type: cell-based, human; details: 15 hours total nutrient removal culture; 100 μM
Procedure: Following the experimental method in Example 3, H9 cells were divided into experiment group (ST group), control group (DMSO group) and normal culture group and cultured. After total nutrient removal culture for 15 hours, immunofluorescence staining of the H9 cells was conducted for Ki67 (a proliferation marker).

[3] = system: Human embryonic stem cell line H9 cells; experiment: Apoptosis in single-cell culture, Annexin V/PI flow cytometry (Example 2); assay type: cell-based; details: day 2 of inoculation; Stemazole 100 μM, Y27632 10 μM; DMSO group 54.1%
Procedure: Human embryonic stem cell line H9 cells were digested into single cells, divided into 3 groups as follows, and then inoculated at a low density on low-density MEF feeder layer cells in 6-well plates:
Experiment group (ST group): complete medium+Stemazole dissolved in DMSO at a concentration in the final culture medium of 100 μM;
Negative control group (DMSO group): complete medium+DMSO at an amount corresponding to the experiment group;
Positive control group (Y27632 group): complete medium+Y27632 dissolved in DMSO at a concentration in the final culture medium of 10 μM.
The cell ratio of each well of the three groups was 10 H9 cells/1 MEF cell.
Apoptosis was detected by flow cytometry using the specific apoptosis assay kit Annexin V/PI on day 2 of inoculation.

[4] = system: Human embryonic stem cell strain H1-9 cells; experiment: Number of cells as a function of culture time in single-cell culture (Example 4); assay type: cell-based; details: 100 μM; complete medium; single-cell culture on MEF feeder
Procedure: Human embryonic stem cell strain H1-9 cells were digested into single cells, then divided into following three groups and inoculated on low-density MEF feeder layer cells in 6-well plates:
(§1) Experiment group (ST group): complete medium+Stemazole dissolved in DMSO at a final concentration in the culture medium of 100 μM;
Control group (DMSO group): complete medium+DMSO with the amount corresponding to the experiment group;
(§2) Normal culture group: complete medium.
The cells in each well of the three groups were maintained well grown on the MEF feeder layer cells, and the medium was supplemented once every 4 days.

[5] = system: H9 cells; experiment: Expression of stem cell markers after total nutrient removal culture, quantitative PCR and immunofluorescence (Example 5 I); assay type: cell-based, human; details: 15 hours total nutrient removal culture; 100 μM
Procedure: Following the experimental method in Example 3, H9 cells were divided into experiment group (ST group) and control group (DMSO group) and cultured. After 15 hours of total nutrient removal culture, the expression of each of human embryonic stem cells' important markers OCT-4, Sox2, FDF4, KLF4, REX1, and Nanog was detected by quantitative PCR.
Ct (Cycle threshold) of each sample was measured by calculating 2^−^ΔΔ^Ct, to compare differential expression of specific gene between different samples. In order to reduce systematic error and sampling error, triplicate wells in parallel were set for each sample. The average value of the triplicate wells was taken as the Ct of the sample, and then 2^−^ΔΔ^Ct was calculated according to the formulas below. […]
In addition, still following the experimental method in Example 3, 1H9 cells were divided into experiment group (ST group), control group (DMSO group) and normal culture group and cultured. After total nutrient removal culture for 15 hours, the expression of each of human embryonic stem cells' important markers OCT-4 and E-Cadherin was detected by immunofluorescence staining.

[6] = system: Human embryonic stem cell line H9 cells; experiment: Apoptosis during total nutrient removal culture, Annexin V/PI flow cytometry (Example 3); assay type: cell-based; details: total nutrient removal for 15 hours; 100 μM; DMSO group about 43%, normal culture about 0.4%
Procedure: After passaged, human embryonic stem cell line H9 cells were divided into the following two groups and inoculated in 6-well plates:
Experiment group (ST group): total nutrient removal culture medium (complete medium with removal of serum and growth factor)+Stemazole dissolved in DMSO at a final concentration in the culture medium of 100 μM;
Control group (DMSO group): total nutrient removal culture medium+DMSO with an amount corresponding to the experiment group;
as §2
Apoptosis was detected by flow cytometry using the specific apoptosis assay kit Annexin V/PI.

[7] = system: H9 cells; experiment: Embryoid body formation in total nutrient removal culture (Example 5 III); assay type: cell-based, human; details: measured at the 15th hour, 100 μM, compared to DMSO group
Procedure: Following the experimental method in Example 3, H9 cells were divided into experiment group (ST group), control group (DMSO group) and normal culture group and cultured. The formation of EBs was observed under a microscope at the 15th hour, and on day 2 and day 4 of total nutrient removal culture respectively, and the diameter and number of EBs were measured at the 15th hours.

[8] = system: H9 cells; experiment: Induced differentiation into endoderm, mesoderm and ectoderm cells, marker expression (Example 5 IV); assay type: cell-based, human; details: nutrient starving 15 hours, then 4 days differentiation medium; 100 μM
Description: Following the experimental method in Example 3, H9 cells were divided into experiment group (ST group), control group (DMSO group) and normal culture group and cultured.
The H9 cells were digested by Collagenase IV, washed with DMEM (high glucose) 3 times, and gently blown into small cell clusters, then were inoculated into 100 mm petri dishes with the culture medium changed into differentiation culture medium (DMEM/F12, 20% FBS, 1× non-essential amino acid, 1×sodium pyruvate, 1×β-mercaptoethanol, double antibiotics, and 2 mM glutamine). The medium was changed every 2 days, and the dishes were observed on each day. After 4 days, RNA was extracted and the differentiation ability of the H9 cells to endoderm, mesoderm and ectoderm cells was detected.

[9] = system: human embryonic stem cell strain H9 cells; experiment: Single cell clone formation in single-cell culture, alkaline phosphatase and OCT-4 staining (Example 1); assay type: cell-based; details: 100 μM; for number of clones of alkaline phosphatase positive cells: H9 single cells on MEF feeder
Procedure: Alkaline Phosphatase Staining—
1) Rinsing cells with PBS, 3 times;
2) Fixing the cell with 4% paraformaldehyde for 10 minutes;
3) Washing with PBS, 3 times;
4) Preparing alkaline phosphatase staining agent:solution A:solution B:solution C=10 μl:10 μl:1 ml;
5) Adding the alkaline phosphatase staining agent to cover the cells, and staining for 20 minutes at room temperature in dark;
6) Aspirating off the staining agent, rinsing with PBS 3 times, storing the cells in PBS, and observing staining under a microscope.
Immunofluorescence Staining—
After being digested into single cells, human embryonic stem cell strain H9 cells were divided into two groups as follows, and inoculated on low density MEF feeder layer cells in 96-well plates:
as §1
Control group (DMSO group): complete medium+DMSO with an amount corresponding to the experiment group.
The cell ratio of each well in the two groups was H9 cell/100 MEF cells, and the medium was supplemented once every 4 days.
Alkaline phosphatase staining was performed on day 4 and day 8. The results are shown in FIG. 1A: the number and sizes of the clones formed by the H9 cells in the DMSO group were less and smaller, while the number and sizes of the clones formed in ST group were higher and larger. […] The number of clones of alkaline phosphatase positive cells in the DMSO group averaged about 12 on day 8, and the number of clones of the alkaline phosphatase positive cells in the ST group averaged about 23, and the difference between the number of the clones in the two groups was significant. As to the size, the diameter of the alkaline phosphatase positive cells in the DMSO group on day 4 averaged about 50 microns, and the diameter of the alkaline phosphatase positive cells in the ST group averaged about 100 microns. There was no significant difference between the sizes of the clones in the two groups. The diameter of the alkaline phosphatase positive cells in the DMSO group on day 8 averaged about 70 microns, and the diameter of the alkaline phosphatase positive cells in the ST group averaged about 200 microns. There was a significant difference between the sizes of the clones in the two groups.
OCT-4 immunofluorescence staining was performed on day 1 and day 8.

Compound | cell viability increase over the control group [1] | expression of proliferation marker Ki67 [2] | Annexin V positive apoptotic cells [3] [%] | number of cells as a function of time [4] | expression of markers OCT-4, Sox2, FDF4, KLF4, REX1, Nanog by quantitative PCR [5] | expression of markers OCT-4 and E-Cadherin by immunofluorescence staining [5] | apoptosis rate [6] | formation of EBs, diameter and number [7] | expression of ectoderm marker GFAP [8] | expression of ectoderm marker Pax6 [8] | expression of mesoderm marker MSX1 [8] | OCT-4 immunofluorescence staining, single cell growth into monoclonal cells ([9]; day 1 and day 8) | diameter of the alkaline phosphatase positive cells (clone size) ([9]; day 4, DMSO group about 50) | number of clones of alkaline phosphatase positive cells ([9]; day 4, DMSO group about 8) | diameter of the alkaline phosphatase positive cells (clone size) ([9]; day 8, DMSO group about 70) | number of clones of alkaline phosphatase positive cells ([9]; day 8, DMSO group about 12)
NNC(=S)Nc1ccc(-c2nnc(S)o2)cc1Br [Br-Stemazole, 4-(2-br-4-(5-mercapto-1,3,4-oxadiazole-2-yl)phenyl)thiosemicarbazide] | up to 2.1 times | – | – | – | – | – | – | – | – | – | – | – | – | – | – | –
NNC(=S)Nc1ccc(-c2nnc(S)o2)cc1 [Stemazole, 4-(4-(5-mercapto-1,3,4-oxadiazole-2-yl)phenyl)thiosemicarbazide] | up to 2.7 times | maintained the proliferation ability | 25.2 | did not increase | maintained the stem cell characteristics | maintained the stem cell characteristics | about 8% | more EBs with larger diameter | comparable to that of the normal control group cells | higher than that of normal control group cells | higher than that of normal control group cells | single cells had grown into monoclonal cells | about 100 microns | about 18 | about 200 microns | about 23
C[C@@H](N)[C@H]1CC[C@H](C(=O)Nc2ccncc2)CC1 [Y27632, 4-[(1R)-1-aminoethyl]-N-(pyridine-4-yl)cyclohexane-1-carboxamide, reference compound] | – | – | 20.1 | – | – | – | – | – | – | – | – | – | – | – | – | –
